Measured values from PMC10104807, “Modulation of tau tubulin kinases (TTBK1 and TTBK2) impacts ciliogenesis” (Scientific Reports, 2023).
Like-named read-outs stand apart in the source and are kept apart here.

Columns and labels:
[1] = target: T1, MARK3 (Homo sapiens, UniProt P27448); experiment: Eurofins enzymatic radiometric kinase assay; format: biochemical; details: ATP at Km, duplicate
T1 construct: purchased Eurofins (radiometric) / Eurofins DiscoverX scanMAX / Reaction Biology / SignalChem
Method: (§1) The column labeled “# < 10 PoC in enzyme panel” in Table 1 reports the number of kinases in this 17-member panel inhibited > 90% by each analog.
(§2) Details about the substrate used, protein constructs, controls, and assay protocol for these kinase assays are available at the Eurofins website: https://www.eurofinsdiscoveryservices.com. Reaction Biology Corp. (RBC) radiometric HotSpot kinase assays were carried out at the Km value for ATP in dose–response (10-pt curve) format for MYLK4, RIPK5, and YSK4 in Table S2. Details about the substrate used, protein constructs, controls, and assay protocol for these kinase assays are available at the RBC website: https://www.reactionbiology.com/list-kinase-targets-us-facility. SignalChem developed an ADP-Glo assay to test for enzymatic inhibition of PIKfyve in dose–response (10-pt curve) format in duplicate.

[2] = target: T2, TAOK3 (Homo sapiens, UniProt Q9H2K8); experiment: Eurofins enzymatic radiometric kinase assay; format: biochemical; details: ATP at Km, duplicate
T2 construct: purchased Eurofins (radiometric) / Eurofins DiscoverX scanMAX / Reaction Biology / SignalChem
T2 sequence (Q9H2K8 1-898): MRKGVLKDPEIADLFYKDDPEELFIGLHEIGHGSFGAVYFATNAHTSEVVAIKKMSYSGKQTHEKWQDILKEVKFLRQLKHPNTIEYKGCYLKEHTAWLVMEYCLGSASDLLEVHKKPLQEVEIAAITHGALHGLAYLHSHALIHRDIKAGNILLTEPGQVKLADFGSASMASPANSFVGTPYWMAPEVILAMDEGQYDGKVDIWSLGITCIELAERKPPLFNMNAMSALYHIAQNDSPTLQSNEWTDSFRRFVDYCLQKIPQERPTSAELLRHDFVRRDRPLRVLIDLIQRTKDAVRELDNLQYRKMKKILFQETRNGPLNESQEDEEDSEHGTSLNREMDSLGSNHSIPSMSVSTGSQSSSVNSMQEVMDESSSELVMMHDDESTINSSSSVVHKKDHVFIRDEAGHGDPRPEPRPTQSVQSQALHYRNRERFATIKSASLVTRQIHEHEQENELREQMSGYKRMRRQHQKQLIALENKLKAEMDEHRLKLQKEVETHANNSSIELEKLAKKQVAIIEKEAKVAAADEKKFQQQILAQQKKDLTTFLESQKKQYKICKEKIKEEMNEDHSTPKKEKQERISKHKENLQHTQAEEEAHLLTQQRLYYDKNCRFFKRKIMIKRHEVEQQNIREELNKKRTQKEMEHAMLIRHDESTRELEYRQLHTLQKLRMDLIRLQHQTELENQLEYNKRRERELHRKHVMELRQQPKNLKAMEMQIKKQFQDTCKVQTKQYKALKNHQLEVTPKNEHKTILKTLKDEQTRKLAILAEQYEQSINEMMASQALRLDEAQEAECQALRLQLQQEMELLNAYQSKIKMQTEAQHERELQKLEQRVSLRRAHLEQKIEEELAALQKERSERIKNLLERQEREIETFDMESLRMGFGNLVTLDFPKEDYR
Method: as §1, §2

[3] = target: T3, NLuc-TTBK1 (Homo sapiens, UniProt Q5TCY1); experiment: TTBK1 NanoBRET cellular target engagement assay in HEK293 cells; format: cell-based; details: 2 μM tracer 29
T3 construct: host or cells: HEK293
Method: (§3) HEK293 cells were transfected with constructs of TTBK1 or TTBK2 tagged with NLuc on the N- or C-terminus as previously described[43] Constructs for NanoBRET measurements of TTBK1 (NLuc-TTBK1 and TTBK1-NLuc) and TTBK2 (NLuc-TTBK2 and TTBK2-NLuc) were kindly provided by Promega. NLuc orientations used in the respective assays are indicated. Cells were plated in 96-well tissue culture treated plates (Corning 3917) at a cell density of 2 × 10^5 cells/mL, with a total volume of 100 μL per well in DMEM. […] NanoBRET plates were read after addition of 50 μL of a stock solution (3X) containing NanoBRET NanoGlo substrate (Promega N2161), extracellular NanoLuc inhibitor (Promega N2161) and Opti-MEM. For a 96-well plate the 3X stock solution was prepared with 30 μL of NanoBRET NanoGlo substrate, 10 μL of extracellular NanoLuc inhibitor, and 4960 μL of Opti-MEM without phenol red. […] HEK293 cells were transfected with NLuc-TTBK1 or NLuc-TTBK2. […] One biological replicate was plotted in GraphPad Prism with log[inhibitor] vs. response (three parameters) and included in Fig. 3C. NanoBRET assays were carried out in dose-response format as described previously. NLuc orientations used in the respective assays are as follows: NLuc-TTBK1, NLuc-TTBK2, and PIP4K2C-NLuc (for PI5[…]γ). […] Data are reported as IC50 ± standard error mean (SEM). For PI5[…]γ, 9 was tested in 12-point dose-response format with a top concentration of 10 μM (data in Table S2). One biological replicate was plotted in GraphPad Prism with log[inhibitor] vs. response (three parameters).

[4] = target: T4, NLuc-TTBK2 (Homo sapiens, UniProt Q6IQ55); experiment: TTBK2 NanoBRET cellular target engagement assay in HEK293 cells; format: cell-based
T4 construct: host or cells: HEK293
Method: as §3

[5] = intact HEK293 cells, read-out: TTBK1 intact cell NB IC50
[6] = permeabilized HEK293 cells (digitonin), read-out: TTBK1 permeabilized cell NB IC50
[7] = intact HEK293 cells, 2 μM tracer 29, read-out: TTBK2 intact cell NB IC50
[8] = permeabilized HEK293 cells (digitonin), 2 μM tracer 29, read-out: TTBK2 permeabilized cell NB IC50

T3 sequence (Q5TCY1 whole entry): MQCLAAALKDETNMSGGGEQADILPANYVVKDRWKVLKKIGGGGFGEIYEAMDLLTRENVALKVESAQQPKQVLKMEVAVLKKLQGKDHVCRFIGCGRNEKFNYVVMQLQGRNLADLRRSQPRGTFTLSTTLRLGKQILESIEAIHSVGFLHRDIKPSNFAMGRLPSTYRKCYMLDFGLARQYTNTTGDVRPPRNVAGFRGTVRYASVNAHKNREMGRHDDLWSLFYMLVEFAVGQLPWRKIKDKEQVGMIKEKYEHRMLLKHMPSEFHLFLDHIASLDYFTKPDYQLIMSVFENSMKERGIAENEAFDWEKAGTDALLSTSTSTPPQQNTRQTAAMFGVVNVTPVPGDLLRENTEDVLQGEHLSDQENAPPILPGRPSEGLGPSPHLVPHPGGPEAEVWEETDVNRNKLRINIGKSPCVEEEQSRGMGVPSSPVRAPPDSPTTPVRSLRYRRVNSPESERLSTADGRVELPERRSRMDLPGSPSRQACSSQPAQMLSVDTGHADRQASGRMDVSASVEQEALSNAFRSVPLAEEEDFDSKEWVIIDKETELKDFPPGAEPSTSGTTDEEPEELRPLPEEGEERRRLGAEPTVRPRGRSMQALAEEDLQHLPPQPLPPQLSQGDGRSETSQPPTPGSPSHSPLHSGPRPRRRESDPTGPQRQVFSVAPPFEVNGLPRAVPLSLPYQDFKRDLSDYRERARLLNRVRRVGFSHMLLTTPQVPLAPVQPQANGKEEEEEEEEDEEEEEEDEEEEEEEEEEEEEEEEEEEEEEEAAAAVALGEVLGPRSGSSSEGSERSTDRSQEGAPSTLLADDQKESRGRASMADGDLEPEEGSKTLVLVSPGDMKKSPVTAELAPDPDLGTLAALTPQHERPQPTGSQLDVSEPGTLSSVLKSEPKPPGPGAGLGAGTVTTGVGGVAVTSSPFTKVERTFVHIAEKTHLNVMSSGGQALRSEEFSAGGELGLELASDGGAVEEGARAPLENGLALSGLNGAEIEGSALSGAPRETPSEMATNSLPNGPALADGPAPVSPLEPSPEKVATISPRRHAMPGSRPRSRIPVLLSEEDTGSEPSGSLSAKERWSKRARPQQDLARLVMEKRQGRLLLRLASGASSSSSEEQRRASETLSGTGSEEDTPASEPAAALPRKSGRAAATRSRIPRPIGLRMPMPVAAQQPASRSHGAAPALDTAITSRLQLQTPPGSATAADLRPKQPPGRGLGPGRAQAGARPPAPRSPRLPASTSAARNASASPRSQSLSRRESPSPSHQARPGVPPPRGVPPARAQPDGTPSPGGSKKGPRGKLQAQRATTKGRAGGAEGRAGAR
T4 sequence (Q6IQ55 whole entry): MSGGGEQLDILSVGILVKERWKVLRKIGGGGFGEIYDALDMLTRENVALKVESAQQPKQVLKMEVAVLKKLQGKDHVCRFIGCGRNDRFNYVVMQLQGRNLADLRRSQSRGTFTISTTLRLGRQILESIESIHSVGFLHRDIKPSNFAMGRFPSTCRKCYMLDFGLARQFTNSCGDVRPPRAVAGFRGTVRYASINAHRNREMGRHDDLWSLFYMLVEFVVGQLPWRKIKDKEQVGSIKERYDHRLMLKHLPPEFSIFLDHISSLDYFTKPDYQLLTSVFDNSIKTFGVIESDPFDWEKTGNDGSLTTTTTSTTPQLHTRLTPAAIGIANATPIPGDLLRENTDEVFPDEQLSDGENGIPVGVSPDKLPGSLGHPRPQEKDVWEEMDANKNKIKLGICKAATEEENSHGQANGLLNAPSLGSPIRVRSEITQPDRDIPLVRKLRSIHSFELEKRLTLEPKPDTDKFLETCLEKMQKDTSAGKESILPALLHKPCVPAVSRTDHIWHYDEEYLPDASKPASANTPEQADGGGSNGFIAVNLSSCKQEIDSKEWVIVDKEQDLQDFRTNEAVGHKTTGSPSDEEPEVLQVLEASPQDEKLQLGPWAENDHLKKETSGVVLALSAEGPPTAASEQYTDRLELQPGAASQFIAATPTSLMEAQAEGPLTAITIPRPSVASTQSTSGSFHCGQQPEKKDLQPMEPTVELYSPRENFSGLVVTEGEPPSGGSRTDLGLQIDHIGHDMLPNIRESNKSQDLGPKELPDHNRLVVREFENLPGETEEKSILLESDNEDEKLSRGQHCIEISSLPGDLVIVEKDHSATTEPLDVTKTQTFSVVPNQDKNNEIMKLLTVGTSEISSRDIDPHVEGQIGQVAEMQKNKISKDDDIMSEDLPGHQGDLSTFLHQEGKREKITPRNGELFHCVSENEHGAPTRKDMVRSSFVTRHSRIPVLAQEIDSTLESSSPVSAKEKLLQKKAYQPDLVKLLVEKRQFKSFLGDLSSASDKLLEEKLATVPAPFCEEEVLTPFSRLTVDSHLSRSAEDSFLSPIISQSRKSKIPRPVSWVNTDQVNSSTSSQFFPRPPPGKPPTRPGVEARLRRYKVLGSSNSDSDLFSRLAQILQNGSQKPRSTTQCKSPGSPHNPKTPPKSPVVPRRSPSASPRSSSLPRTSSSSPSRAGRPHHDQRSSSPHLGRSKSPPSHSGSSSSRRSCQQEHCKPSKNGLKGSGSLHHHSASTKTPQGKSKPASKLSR
T1 sequence (P27448 whole entry): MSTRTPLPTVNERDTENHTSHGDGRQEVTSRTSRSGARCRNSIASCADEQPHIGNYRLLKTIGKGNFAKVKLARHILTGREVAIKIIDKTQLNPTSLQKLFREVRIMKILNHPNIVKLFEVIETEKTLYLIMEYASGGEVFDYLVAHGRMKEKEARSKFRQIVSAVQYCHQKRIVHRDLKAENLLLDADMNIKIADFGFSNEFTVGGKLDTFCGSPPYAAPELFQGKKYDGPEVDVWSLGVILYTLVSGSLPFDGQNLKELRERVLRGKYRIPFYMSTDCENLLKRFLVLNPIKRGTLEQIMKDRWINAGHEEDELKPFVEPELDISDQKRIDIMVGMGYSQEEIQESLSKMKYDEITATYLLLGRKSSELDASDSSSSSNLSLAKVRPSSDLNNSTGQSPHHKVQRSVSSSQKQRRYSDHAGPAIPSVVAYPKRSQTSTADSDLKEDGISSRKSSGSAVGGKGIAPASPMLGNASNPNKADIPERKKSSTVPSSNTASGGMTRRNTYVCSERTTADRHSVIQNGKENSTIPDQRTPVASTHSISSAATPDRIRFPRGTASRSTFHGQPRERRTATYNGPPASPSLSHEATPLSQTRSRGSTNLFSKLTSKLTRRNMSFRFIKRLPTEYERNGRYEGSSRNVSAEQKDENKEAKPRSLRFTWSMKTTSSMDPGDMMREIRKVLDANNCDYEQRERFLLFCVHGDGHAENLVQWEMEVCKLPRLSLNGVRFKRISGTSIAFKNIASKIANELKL

CC(C)(O)C#Cc1ccc2[nH]c3c(c2c1)-c1nc(N)ncc1CC3 [Compound 1]
MARK3 PoC at 1 μM [1]: 56 PoC | TAOK3 PoC at 1 μM [2]: 11 PoC | IC50 [3, 5]: > 30 µM | IC50 [3, 6]: 2.5 µM | IC50 [4, 7]: 16 µM | IC50 [4, 8]: 3.6 µM

COC(C)(C)C#Cc1ccc2[nH]c3c(c2c1)-c1nc(N)ncc1CCC3 [Compound 11]
MARK3 PoC at 1 μM [1]: 104 PoC | TAOK3 PoC at 1 μM [2]: 89 PoC | IC50 [3, 5]: > 30 µM | IC50 [3, 6]: > 30 µM | IC50 [4, 7]: > 30 µM | IC50 [4, 8]: > 30 µM

CC(C)(O)C#Cc1ccc2[nH]cc(-c3ccnc(N)n3)c2c1 [Compound 3]
MARK3 PoC at 1 μM [1]: 46 PoC | TAOK3 PoC at 1 μM [2]: 20 PoC | IC50 [4, 7]: 11.7 ± 3.7 µM | IC50 [4, 8]: 2.52 ± 0.62 µM | IC50 ([4]; tracer titration experiment, 2 μM tracer 29, n = 1, read-out: NL-TTBK2 IC50, tracer titration): 6.9 µM

CC(C)(O)C#Cc1ccc2[nH]c3c(c2c1)-c1nc(N)ncc1CCC3 [AMG28, reference compound]
MARK3 PoC at 1 μM [1]: 12 PoC | TAOK3 PoC at 1 μM [2]: 9 PoC

CC(C)(O)C#Cc1ccc2[nH]c3c(c2c1)-c1nc(N)ncc1CCCC3 [Compound 2]
MARK3 PoC at 1 μM [1]: 76 PoC | TAOK3 PoC at 1 μM [2]: 78 PoC | IC50 [3, 5]: > 30 µM | IC50 [3, 6]: 19 µM | IC50 [4, 7]: > 30 µM | IC50 [4, 8]: 17 µM
